Drawing on patent US5665718A, “Imidazodiazepines” (Hoffmann-La Roche Inc., priority 1994, dated 1997), this text covers fatalities, IC50 and ED50 for 3 molecules.

pIC50: −log10 of the molar value. Like-named read-outs stand apart in the source and are kept apart here. Where only a bound is given, the exact number is not on record here.

As usually defined, the pIC50 is the IC50 on a negative log10 scale, so that one unit is a factor of ten.

The nature of data set [1]: Fatalities after i.v. administration to mice. It counts as in vivo. To be noted: 32 and 100 mg/kg i.v.
Data set [2] concerns the target central benzodiazepine receptors. The data set can be described thus: Affinity to central benzodiazepine receptors: inhibition of binding of tritiated flumazenil in rat cortex. To be noted: in vitro. On the procedure: The affinity of compounds of general formula I to the central benzodiazepine receptors was established in vitro according to the methods described in Nature 294, 763-765 (1981) and J. Neurochemistry 37, 714-722 (1981). According to these methods, the inhibition of the binding of tritiated flumazenil to the specific benzodiazepine receptors in the cortex of rats by the respective test substances is determined. The IC50 ("50% inhibiting concentration") denotes that concentration of the respective test substance which brings about a 50 per cent inhibition of the specific binding of tritiated flumazenil to the specific benzodiazepine receptors in the cortex of rats.

Data set [3] in a line: Rotating rod test (sedative/muscle relaxant properties), i.v. It counts as in vivo. The note with it: Mus musculus, iv, mice. As for the experimental part:
The sedative/muscle relaxant properties of the compounds of formula I in accordance with the invention can be determined, for example, in the rotating rod test. Mice weighing 19-21 g are used for this test. They have free access to feed and drinking water up to 1 hour before the beginning of the test. They are brought into the test laboratory at least 30 minutes before the test. In the rotating rod test the animals are placed on a horizontally arranged, smooth metal rod having a diameter of 3 cm, which is rotated at 2 revolutions per minute. Initially, the animals are given the opportunity of familiarizing themselves with the test situation for 30 seconds. Subsequently, those animals which succeed in remaining on the rod for at least 1 minute are selected. These animals are then given the test preparations intravenously in different dosages. At various points in time it is then determined whether the animals are able to remain on the rod for a minimum period (minimum period: 10 seconds; from 5 minutes after administration: 1 minute.). That dosages at which 50% of the animals are capable of remaining on the rod (ED 50) is determined.

A short description of data set [4]: Fatalities after i.v. administration to rats. It counts as in vivo. To be noted: 32 and 100 mg/kg i.v.
Where [5] appears, read: 15 s, 15 sec after administration, read-out: Rotating rod test, ED50, 15 sec after administration.
Where [6] appears, read: 0.5 min, 30 sec after administration, read-out: Rotating rod test, ED50, 30 sec after administration.
Where [7] appears, read: 1 min, 60 sec after administration, read-out: Rotating rod test, ED50, 60 sec after administration.
[8] abbreviates: 2 min, 2 min after administration, read-out: Rotating rod test, ED50, 2 min after administration.
Setting [9] is: 5 min, 5 min after administration, read-out: Rotating rod test, ED50, 5 min after administration.
[10] abbreviates: 0.25 h, 15 min after administration, read-out: Rotating rod test, ED50, 15 min after administration.
[11] abbreviates: 0.5 h, 30 min after administration, read-out: Rotating rod test, ED50, 30 min after administration.
The mark [12] stands for this setting: 1 h, 60 min after administration, read-out: Rotating rod test, ED50, 60 min after administration.

Consider `CCCN(CCC)Cc1nc(-c2ncn3c2[C@@H]2CCN2C(=O)c2c(Cl)cccc2-3)no1` [A, (S)-8-chloro-1-(5-dipropylaminomethyl-1,2,4-oxadiazol-3-yl)-12,12a-dihydro-9H,11H-azeto[2,1-c]imidazo[1,5-a][1,4]benzodiazepin-9-one], for which the fatalities entry in data set [1] and in data set [4] was “without fatalities occurring” in each case. This molecule also showed a pIC50 in data set [2] of 7.89. Further, the ED50 in data set [3] (setting [5]) came out at 0.3 mg/kg; in data set [3] (setting [6]), 0.3 mg/kg; in data set [3] (setting [7]) it was 0.7 mg/kg; in data set [3] (setting [8]), 0.8 mg/kg; in data set [3] (setting [9]) it was 1.4 mg/kg; in data set [3] (setting [10]), 2.1 mg/kg. The ED50 in data set [3] (setting [11]) was 7.3 mg/kg; in data set [3] (setting [12]), greater than 10 mg/kg.

Take `CCCN(CCC)Cc1nc(-c2ncn3c2CN(C)C(=O)c2cc(F)ccc2-3)no1` [D, 3-(5-dipropylaminomethyl-1,2,4-oxadiazol-3-yl)-8-fluoro-5-methyl-5,6-dihydro-4H-imidazo[1,5-a][1,4]benzodiazepin-6-one]: the fatalities result in data set [1] and in data set [4] was “without fatalities occurring” each time. Besides, in data set [2], the pIC50 is 8.48. Besides, the ED50 in data set [3] (setting [5]) came out at 0.2 mg/kg; in data set [3] (setting [6]), 0.2 mg/kg; in data set [3] (setting [7]), 0.3 mg/kg; in data set [3] (setting [8]), 0.3 mg/kg; in data set [3] (setting [9]), 0.8 mg/kg; in data set [3] (setting [10]) it was 2.6 mg/kg. The ED50 in data set [3] (setting [11]) and in data set [3] (setting [12]) was greater than 10 mg/kg in each case.

In the case of `C=CCN(CC=C)Cc1nc(-c2ncn3c2[C@@H]2CCN2C(=O)c2c-3ccc(F)c2Cl)no1` [E, (S)-1-(5-diallylaminomethyl-1,2,4-oxadiazol-3-yl)-8-chloro-7-fluoro-12,12a-dihydro-9H,11H-azeto[2,1-c]imidazo[1,5-a][1,4]benzodiazepin-9-one], the fatalities result in data set [1] and in data set [4] was “without fatalities occurring” each time. In data set [2], this molecule gave a pIC50 of 8.00. The ED50 turned out to be 0.2 mg/kg in data set [3] (setting [5]); 0.3 mg/kg in data set [3] (setting [6]); 0.3 mg/kg in data set [3] (setting [7]); 0.4 mg/kg in data set [3] (setting [8]); 0.8 mg/kg in data set [3] (setting [9]); 3.9 mg/kg in data set [3] (setting [10]). For the same molecule, the ED50 in data set [3] (setting [11]) is no less than 10 mg/kg; in data set [3] (setting [12]), greater than 10 mg/kg.
